Reference: patent US9598387B2 (Southern Research Institute, priority 2012, dated 2017)

Columns and labels:
[1] = target: human D3 dopamine receptor (Homo sapiens (Human), UniProt P35462); test: Radioligand binding (125I-IABN competition), D3; conditions: for Ki: 125I-IABN competition, HEK cell membranes expressing human D3; for D2/D3 (D3 selectivity ratio, D2 Ki/D3 Ki): calculated D2 Ki/D3 Ki
Description: (§1) The affinities of the target compounds were determined using radioligand binding experiments. […] Competition curves were modeled for a single site. Data from competition dose-response curves were analyzed using Tablecurve program (Jandel). IC50 values were converted to equilibrium dissociation constants (Ki values) using the Cheng and Prusoff correction.

[2] = target: human D2-long dopamine receptor (Homo sapiens (Human), UniProt P14416); test: Radioligand binding (125I-IABN competition), D2; conditions: HEK cell membranes expressing human D2-long
human D2-long dopamine receptor, sequence (P14416 whole entry): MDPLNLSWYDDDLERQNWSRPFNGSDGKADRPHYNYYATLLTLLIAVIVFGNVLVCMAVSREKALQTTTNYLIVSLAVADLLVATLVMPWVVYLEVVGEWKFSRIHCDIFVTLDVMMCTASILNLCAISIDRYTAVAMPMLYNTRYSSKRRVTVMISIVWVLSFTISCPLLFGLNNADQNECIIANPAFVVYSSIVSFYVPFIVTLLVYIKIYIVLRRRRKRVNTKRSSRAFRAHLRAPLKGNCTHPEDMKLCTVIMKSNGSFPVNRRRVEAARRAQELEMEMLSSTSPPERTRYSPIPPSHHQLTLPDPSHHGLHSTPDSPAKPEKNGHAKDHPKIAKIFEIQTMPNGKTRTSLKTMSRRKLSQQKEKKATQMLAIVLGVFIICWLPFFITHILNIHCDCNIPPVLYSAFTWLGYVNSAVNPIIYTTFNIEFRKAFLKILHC
Description: as §1

human D3 dopamine receptor, sequence (P35462 whole entry): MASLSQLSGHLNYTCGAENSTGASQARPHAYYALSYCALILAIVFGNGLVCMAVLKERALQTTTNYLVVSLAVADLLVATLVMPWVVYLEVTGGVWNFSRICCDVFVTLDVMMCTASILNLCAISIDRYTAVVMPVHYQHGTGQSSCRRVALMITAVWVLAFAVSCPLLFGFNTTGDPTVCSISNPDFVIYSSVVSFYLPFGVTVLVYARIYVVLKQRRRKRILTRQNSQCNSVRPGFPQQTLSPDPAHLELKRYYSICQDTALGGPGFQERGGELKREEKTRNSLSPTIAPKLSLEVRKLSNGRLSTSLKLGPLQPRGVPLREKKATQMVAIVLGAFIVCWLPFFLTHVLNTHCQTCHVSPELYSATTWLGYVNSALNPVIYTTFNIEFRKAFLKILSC

| SMILES | Ki [1] | D2/D3 (D3 selectivity ratio, D2 Ki/D3 Ki) [1] | Ki [2] |
| --- | --- | --- | --- |
| O=C(NCCCCN1CCN(c2cccc(C(F)(F)F)c2)CC1)N1CCN(c2ccccc2)CC1 [Compound 2, 4-Phenyl-N-(4-(4-(3-(trifluoromethyl)phenyl)piperazin-1-yl)butyl)piperazine-1-carboxamide] | 14.2 ± 2.9 nM | 21 | 303 ± 10.4 nM |
| CC(C)(C)c1nc(C2CC2)cc(N2CCN(CCCCNC(=O)N3CCN(c4ccccc4)CC3)CC2)n1 [Compound 9, N-(4-(4-(2-(tert-Butyl)-6-cyclopropylpyrimidin-4-yl)piperazin-1-yl)butyl)-4-phenylpiperazine-1-carboxamide] | 15.1 ± 2.8 nM | 34 | 515 ± 59.6 nM |
| CC(C)(C)c1cc(N2CCN(CCCCNC(=O)N3CCN(c4ccccc4)CC3)CC2)nc(C(C)(C)C)n1 [Compound 10, N-(4-(4-(2,6-Di-tert-butylpyrimidin-4-yl)piperazin-1-yl)butyl)-4-phenylpiperazine-1-carboxamide] | 15.1 ± 4.2 nM | 22 | 337 ± 67.8 nM |
| O=C(NCCCCN1CCN(c2ccnc3cc(Cl)ccc23)CC1)N1CCN(c2ccccc2)CC1 [Compound 12, N-(4-(4-(7-Chloroquinolin-4-yl)piperazin-1-yl)butyl)-4-phenylpiperazine-1-carboxamide] | 26.9 ± 4.9 nM | 35 | 933 ± 91 nM |
| CC(C)(C)c1nc(N2CCN(CCCCNC(=O)N3CCN(c4ccccc4Cl)CC3)CC2)cc(C(F)(F)F)n1 [Compound 14, N-(4-(4-(2-(tert-Butyl)-6-(trifluoromethyl)pyrimidin-4-yl)piperazin-1-yl)butyl)-4-(2-chlorophenyl)piperazine-1-carboxamide] | 21.4 ± 3.4 nM | 34 | 738 ± 88.8 nM |
| CC(C)(C)c1nc(N2CCN(CCCCNC(=O)N3CCN(c4cccc(Cl)c4)CC3)CC2)cc(C(F)(F)F)n1 [Compound 15, N-(4-(4-(2-(tert-Butyl)-6-(trifluoromethyl)pyrimidin-4-yl)piperazin-1-yl)butyl)-4-(3-chlorophenyl)piperazine-1-carboxamide] | 19.3 ± 1.6 nM | 30 | 582 ± 127 nM |
| CC(C)(C)c1nc(N2CCN(CCCCNC(=O)N3CCC(c4ccc(Cl)cc4)CC3)CC2)cc(C(F)(F)F)n1 [Compound 16, N-(4-(4-(2-(tert-Butyl)-6-(trifluoromethyl)pyrimidin-4-yl)piperazin-1-yl)butyl)-4-(4-chlorophenyl)piperidine-1-carboxamide] | 21.2 ± 1.4 nM | 42 | 894 ± 200 nM |
| CC(C)(C)c1nc(N2CCN(CCCCNC(=O)N3CCC(C#N)(c4ccccc4)CC3)CC2)cc(C(F)(F)F)n1 [Compound 17, N-(4-(4-(2-(tert-Butyl)-6-(trifluoromethyl)pyrimidin-4-yl)piperazin-1-yl)butyl)-4-cyano-4-phenylpiperidine-1-carboxamide] | 16 nM | 52 | 843 ± 95 nM |
| CC(C)(C)c1nc(N2CCN(CCCCNC(=O)N3CCN(c4cccc(Cl)c4Cl)CC3)CC2)cc(C(F)(F)F)n1 [Compound 18, N-(4-(4-(2-(tert-Butyl)-6-(trifluoromethyl)pyrimidin-4-yl)piperazin-1-yl)butyl)-4-(2,3-dichlorophenyl)piperazine-1-carboxamide] | 24.6 ± 4.9 nM | 31 | 759 ± 97 nM |
| COc1ccccc1N1CCN(C(=O)NCCCCN2CCN(c3cc(C(F)(F)F)nc(C(C)(C)C)n3)CC2)CC1 [Compound 19, N-(4-(4-(2-(tert-Butyl)-6-(trifluoromethyl)pyrimidin-4-yl)piperazin-1-yl)butyl)-4-(2-methoxyphenyl)piperazine-1-carboxamide] | 25.2 ± 5.5 nM | 34 | 861 ± 137 nM |
| COc1cccc(N2CCN(C(=O)NCCCCN3CCN(c4cc(C(F)(F)F)nc(C(C)(C)C)n4)CC3)CC2)c1 [Compound 20, N-(4-(4-(2-(tert-Butyl)-6-(trifluoromethyl)pyrimidin-4-yl)piperazin-1-yl)butyl)-4-(3-methoxyphenyl)piperazine-1-carboxamide] | 13 ± 0.7 nM | 58 | 762 ± 159 nM |
| COc1ccc(N2CCN(C(=O)NCCCCN3CCN(c4cc(C(F)(F)F)nc(C(C)(C)C)n4)CC3)CC2)cc1 [Compound 21, N-(4-(4-(2-(tert-Butyl)-6-(trifluoromethyl)pyrimidin-4-yl)piperazin-1-yl)butyl)-4-(4-methoxyphenyl)piperazine-1-carboxamide] | 11.6 ± 0.9 nM | 48 | 557 ± 79.5 nM |
| Cc1cccc(N2CCN(C(=O)NCCCCN3CCN(c4cc(C(F)(F)F)nc(C(C)(C)C)n4)CC3)CC2)c1 [Compound 22, N-(4-(4-(2-(tert-Butyl)-6-(trifluoromethyl)pyrimidin-4-yl)piperazin-1-yl)butyl)-4-(m-tolyl)piperazine-1-carboxamide] | 24.7 ± 5.4 nM | 38 | 928 ± 231 nM |
| Cc1ccc(N2CCN(C(=O)NCCCCN3CCN(c4cc(C(F)(F)F)nc(C(C)(C)C)n4)CC3)CC2)cc1 [Compound 23, N-(4-(4-(2-(tert-Butyl)-6-(trifluoromethyl)pyrimidin-4-yl)piperazin-1-yl)butyl)-4-(p-tolyl)piperazine-1-carboxamide] | 22.8 ± 4.2 nM | 35 | 802 ± 179 nM |
| Cc1cccc(N2CCN(C(=O)NCCCCN3CCN(c4cc(C(F)(F)F)nc(C(C)(C)C)n4)CC3)CC2)c1C [Compound 24, N-(4-(4-(2-(tert-Butyl)-6-(trifluoromethyl)pyrimidin-4-yl)piperazin-1-yl)butyl)-4-(2,3-dimethylphenyl)piperazine-1-carboxamide] | 29.9 ± 5.6 nM | 39 | 1180 ± 265 nM |
| CC(C)(C)c1nc(N2CCN(CCCCNC(=O)N3CCN(c4ccccc4C#N)CC3)CC2)cc(C(F)(F)F)n1 [Compound 25, N-(4-(4-(2-(tert-Butyl)-6-(trifluoromethyl)pyrimidin-4-yl)piperazin-1-yl)butyl)-4-(2-cyanophenyl)piperazine-1-carboxamide] | 16.6 ± 2.2 nM | 23 | 385 ± 58.5 nM |
| CC(C)(C)c1nc(N2CCN(CCCCNC(=O)N3CCN(c4cccc(C(F)(F)F)c4)CC3)CC2)cc(C(F)(F)F)n1 [Compound 27, N-(4-(4-(2-(tert-Butyl)-6-(trifluoromethyl)pyrimidin-4-yl)piperazin-1-yl)butyl)-4-(3-(trifluoromethyl)phenyl)piperazine-1-carboxamide] | 29.6 ± 3.2 nM | 35 | 1050 ± 95.7 nM |
| CC(C)(C)c1nc(N2CCN(CCCCNC(=O)N3CCN(c4ccc(C(F)(F)F)cc4)CC3)CC2)cc(C(F)(F)F)n1 [Compound 28, N-(4-(4-(2-(tert-Butyl)-6-(trifluoromethyl)pyrimidin-4-yl)piperazin-1-yl)butyl)-4-(4-(trifluoromethyl)phenyl)piperazine-1-carboxamide] | 19.4 ± 4.8 nM | 22 | 428 ± 102 nM |
| CC(C)(C)c1nc(N2CCN(CCCCNC(=O)N3CCN(c4ccncc4)CC3)CC2)cc(C(F)(F)F)n1 [Compound 31, N-(4-(4-(2-(tert-Butyl)-6-(trifluoromethyl)pyrimidin-4-yl)piperazin-1-yl)butyl)-4-(pyridin-4-yl)piperazine-1-carboxamide] | 2.6 ± 0.3 nM | 38 | 97.4 ± 21.7 nM |
| CC(C)(C)c1nc(N2CCN(CCCCNC(=O)N3CCN(c4cnccn4)CC3)CC2)cc(C(F)(F)F)n1 [Compound 33, N-(4-(4-(2-(tert-Butyl)-6-(trifluoromethyl)pyrimidin-4-yl)piperazin-1-yl)butyl)-4-(pyrazin-2-yl)piperazine-1-carboxamide] | 8.6 ± 1.8 nM | 54 | 463 ± 55.1 nM |
| CC(C)(C)c1nc(N2CCN(CCCCNC(=O)C3CCN(c4ccccc4)CC3)CC2)cc(C(F)(F)F)n1 [Compound 108, N-(4-(4-(2-(tert-Butyl)-6-(trifluoromethyl)pyrimidin-4-yl)piperazin-1-yl)butyl)-1-phenylpiperidine-4-carboxamide] |  |  | 809 ± 194 nM |
| Cc1cc(N2CCN(CCCCNC(=O)c3cn4ccccc4n3)CC2)nc(C(C)(C)C)n1 [Compound 111, N-(4-(4-(2-(tert-Butyl)-6-methylpyrimidin-4-yl)piperazin-1-yl)butyl)imidazo[1,2-a]pyridine-2-carboxamide] |  |  | 366 nM |
| CC(C)(C)c1nc(C2CC2)cc(N2CCN(CCCCNC(=O)c3cn4ccccc4n3)CC2)n1 [Compound 112, N-(4-(4-(2-(tert-Butyl)-6-cyclopropylpyrimidin-4-yl)piperazin-1-yl)butyl)imidazo[1,2-a]pyridine-2-carboxamide] |  |  | 191 nM |
| O=C(NCCCCN1CCN(c2ccnc3cc(Cl)ccc23)CC1)c1cn2ccccc2n1 [Compound 118, N-(4-(4-(7-Chloroquinolin-4-yl)piperazin-1-yl)butyl)imidazo[1,2-a]pyridine-2-carboxamide] |  |  | 1880 ± 488 nM |
| Cc1nc(N2CCN(CCCCNC(=O)c3cn4ccccc4n3)CC2)cc(C(C)(C)C)n1 [Compound 125, N-(4-(4-(6-(tert-Butyl)-2-methylpyrimidin-4-yl)piperazin-1-yl)butyl)imidazo[1,2-a]pyridine-2-carboxamide] |  |  | 4600 ± 785 nM |
| O=C(NCCCCN1CCN(c2cc(C(F)(F)F)nc3ccccc23)CC1)c1cn2ccccc2n1 [Compound 130, N-(4-(4-(2-(Trifluoromethyl)quinolin-4-yl)piperazin-1-yl)butyl)imidazo[1,2-a]pyridine-2-carboxamide] |  |  | 13600 ± 6260 nM |
